From the kinase profiling compilation of Christmann-Franck et al. (2016)

How the values were obtained:
Experiment in all cases: radiometric filter-binding kinase assay, Kinase HotSpot
Conditions in all cases: compound 0.5 µM; ATP 10 µM
AKT1 (human) = AKT1 (human) (UniProt P31749)
FLT3 (human) = FLT3 (human) (UniProt P36888)
NEK3 (human) = NEK3 (human) (UniProt P51956)
MAP3K8 (human) = MAP3K8 (human) (UniProt P41279)
PRKD1 (human) = PRKD1 (human) (UniProt Q15139)
ADRBK2 (human) = ADRBK2 (human) (UniProt P35626)
CSNK1E (human) = CSNK1E (human) (UniProt P49674)
MYLK2 (human) = MYLK2 (human) (UniProt Q9H1R3)
PRKCB2 (human) = PRKCB2 (human) (UniProt P05771)
FER (human) = FER (human) (UniProt P16591)
PNCK (human) = PNCK (human) (UniProt Q6P2M8)
PRKCB1 (human) = PRKCB1 (human) (UniProt P05771)
INSRR (human) = INSRR (human) (UniProt P14616)
TEC (human) = TEC (human) (UniProt P42680)
EPHA8 (human) = EPHA8 (human) (UniProt P29322)
PRKCE (human) = PRKCE (human) (UniProt Q02156)
NEK1 (human) = NEK1 (human) (UniProt Q96PY6)
IKBKE (human) = IKBKE (human) (UniProt Q14164)
GRK5 (human) = GRK5 (human) (UniProt P34947)
MUSK (human) = MUSK (human) (UniProt O15146)
ROS1 (human) = ROS1 (human) (UniProt P08922)
MAPKAPK3 (human) = MAPKAPK3 (human) (UniProt Q16644)
CSF1R (human) = CSF1R (human) (UniProt P07333)
SGK2 (human) = SGK2 (human) (UniProt Q9HBY8)
ULK1 (human) = ULK1 (human) (UniProt O75385)
CSNK1G2 (human) = CSNK1G2 (human) (UniProt P78368)
DYRK3 (human) = DYRK3 (human) (UniProt O43781)
PDGFRA (human) = PDGFRA (human) (UniProt P16234)
KIT (human) = KIT (human) (UniProt P10721)
EPHA5 (human) = EPHA5 (human) (UniProt P54756)
EPHB2 (human) = EPHB2 (human) (UniProt P29323)
PAK6 (human) = PAK6 (human) (UniProt Q9NQU5)
MST4 (human) = MST4 (human) (UniProt Q9P289)
PTK2 (human) = PTK2 (human) (UniProt Q05397)
MAP3K2 (human) = MAP3K2 (human) (UniProt Q9Y2U5)
STK25 (human) = STK25 (human) (UniProt O00506)
MAP4K5 (human) = MAP4K5 (human) (UniProt Q9Y4K4)
INSR (human) = INSR (human) (UniProt P06213)
CDK5 CDK5R1 p25 (human) = CDK5 CDK5R1 p25 (human) (UniProt Q00535+Q15078)
CDC42BPA (human) = CDC42BPA (human) (UniProt Q5VT25)
ROCK2 (human) = ROCK2 (human) (UniProt O75116)
PLK1 (human) = PLK1 (human) (UniProt P53350)

Sequence of ROS1 (human) (P08922 whole entry, looked up): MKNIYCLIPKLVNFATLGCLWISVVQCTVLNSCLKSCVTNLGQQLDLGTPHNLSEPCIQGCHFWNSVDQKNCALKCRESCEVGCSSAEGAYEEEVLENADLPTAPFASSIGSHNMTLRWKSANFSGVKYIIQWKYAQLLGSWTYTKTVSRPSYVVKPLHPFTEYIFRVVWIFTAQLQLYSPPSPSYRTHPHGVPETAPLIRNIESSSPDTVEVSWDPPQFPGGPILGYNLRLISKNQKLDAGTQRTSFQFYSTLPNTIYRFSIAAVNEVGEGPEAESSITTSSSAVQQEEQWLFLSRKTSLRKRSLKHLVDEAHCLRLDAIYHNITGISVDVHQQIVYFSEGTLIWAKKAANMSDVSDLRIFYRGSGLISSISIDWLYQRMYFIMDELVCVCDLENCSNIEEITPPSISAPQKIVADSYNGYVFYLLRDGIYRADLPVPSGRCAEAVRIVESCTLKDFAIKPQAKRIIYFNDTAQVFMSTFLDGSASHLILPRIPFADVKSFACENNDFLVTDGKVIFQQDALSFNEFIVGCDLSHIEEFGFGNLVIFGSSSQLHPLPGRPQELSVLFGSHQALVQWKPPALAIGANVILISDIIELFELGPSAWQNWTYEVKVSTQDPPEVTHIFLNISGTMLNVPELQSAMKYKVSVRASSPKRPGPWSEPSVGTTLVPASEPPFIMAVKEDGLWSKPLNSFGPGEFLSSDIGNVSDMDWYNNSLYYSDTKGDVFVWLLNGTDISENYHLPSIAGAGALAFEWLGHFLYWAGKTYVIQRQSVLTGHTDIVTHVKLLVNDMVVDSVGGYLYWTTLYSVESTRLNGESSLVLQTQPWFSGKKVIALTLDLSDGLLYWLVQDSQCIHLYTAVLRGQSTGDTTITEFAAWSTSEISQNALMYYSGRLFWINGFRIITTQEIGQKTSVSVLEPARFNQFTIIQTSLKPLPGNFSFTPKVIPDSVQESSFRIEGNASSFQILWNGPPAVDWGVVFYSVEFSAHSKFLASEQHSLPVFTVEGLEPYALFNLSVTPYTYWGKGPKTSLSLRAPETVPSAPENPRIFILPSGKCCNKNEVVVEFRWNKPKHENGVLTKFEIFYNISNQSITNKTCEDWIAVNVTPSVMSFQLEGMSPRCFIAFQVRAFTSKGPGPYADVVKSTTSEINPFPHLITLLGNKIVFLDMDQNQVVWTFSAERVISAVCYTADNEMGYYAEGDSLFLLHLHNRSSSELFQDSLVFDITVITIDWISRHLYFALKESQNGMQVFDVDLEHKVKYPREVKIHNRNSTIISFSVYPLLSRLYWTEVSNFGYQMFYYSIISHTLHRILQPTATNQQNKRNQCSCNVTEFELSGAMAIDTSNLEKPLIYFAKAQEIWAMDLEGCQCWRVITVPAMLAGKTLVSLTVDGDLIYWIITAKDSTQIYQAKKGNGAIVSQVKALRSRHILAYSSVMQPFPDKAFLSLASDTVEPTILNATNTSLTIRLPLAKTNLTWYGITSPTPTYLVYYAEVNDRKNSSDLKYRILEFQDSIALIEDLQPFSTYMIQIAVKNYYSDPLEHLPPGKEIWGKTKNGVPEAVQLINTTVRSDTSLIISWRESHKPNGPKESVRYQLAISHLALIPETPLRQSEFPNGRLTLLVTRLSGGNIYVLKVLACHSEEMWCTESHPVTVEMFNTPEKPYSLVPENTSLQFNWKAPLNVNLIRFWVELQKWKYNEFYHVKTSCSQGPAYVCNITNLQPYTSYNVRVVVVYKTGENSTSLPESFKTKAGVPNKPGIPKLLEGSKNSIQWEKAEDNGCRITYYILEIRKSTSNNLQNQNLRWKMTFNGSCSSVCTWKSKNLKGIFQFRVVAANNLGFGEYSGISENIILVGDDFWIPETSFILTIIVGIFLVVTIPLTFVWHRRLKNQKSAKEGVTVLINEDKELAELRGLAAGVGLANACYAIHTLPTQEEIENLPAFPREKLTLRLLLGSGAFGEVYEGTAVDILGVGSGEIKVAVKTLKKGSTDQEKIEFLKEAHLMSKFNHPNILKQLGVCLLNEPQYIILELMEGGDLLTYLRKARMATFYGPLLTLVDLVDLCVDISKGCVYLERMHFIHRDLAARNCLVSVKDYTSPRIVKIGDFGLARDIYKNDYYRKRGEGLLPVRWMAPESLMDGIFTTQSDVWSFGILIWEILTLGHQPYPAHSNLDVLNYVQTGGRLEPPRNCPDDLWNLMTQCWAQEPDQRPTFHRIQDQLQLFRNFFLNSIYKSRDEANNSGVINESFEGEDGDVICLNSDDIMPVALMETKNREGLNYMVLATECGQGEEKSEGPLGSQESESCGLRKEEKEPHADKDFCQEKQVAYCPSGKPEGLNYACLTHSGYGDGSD
Sequence of ROCK2 (human) (O75116 whole entry, looked up): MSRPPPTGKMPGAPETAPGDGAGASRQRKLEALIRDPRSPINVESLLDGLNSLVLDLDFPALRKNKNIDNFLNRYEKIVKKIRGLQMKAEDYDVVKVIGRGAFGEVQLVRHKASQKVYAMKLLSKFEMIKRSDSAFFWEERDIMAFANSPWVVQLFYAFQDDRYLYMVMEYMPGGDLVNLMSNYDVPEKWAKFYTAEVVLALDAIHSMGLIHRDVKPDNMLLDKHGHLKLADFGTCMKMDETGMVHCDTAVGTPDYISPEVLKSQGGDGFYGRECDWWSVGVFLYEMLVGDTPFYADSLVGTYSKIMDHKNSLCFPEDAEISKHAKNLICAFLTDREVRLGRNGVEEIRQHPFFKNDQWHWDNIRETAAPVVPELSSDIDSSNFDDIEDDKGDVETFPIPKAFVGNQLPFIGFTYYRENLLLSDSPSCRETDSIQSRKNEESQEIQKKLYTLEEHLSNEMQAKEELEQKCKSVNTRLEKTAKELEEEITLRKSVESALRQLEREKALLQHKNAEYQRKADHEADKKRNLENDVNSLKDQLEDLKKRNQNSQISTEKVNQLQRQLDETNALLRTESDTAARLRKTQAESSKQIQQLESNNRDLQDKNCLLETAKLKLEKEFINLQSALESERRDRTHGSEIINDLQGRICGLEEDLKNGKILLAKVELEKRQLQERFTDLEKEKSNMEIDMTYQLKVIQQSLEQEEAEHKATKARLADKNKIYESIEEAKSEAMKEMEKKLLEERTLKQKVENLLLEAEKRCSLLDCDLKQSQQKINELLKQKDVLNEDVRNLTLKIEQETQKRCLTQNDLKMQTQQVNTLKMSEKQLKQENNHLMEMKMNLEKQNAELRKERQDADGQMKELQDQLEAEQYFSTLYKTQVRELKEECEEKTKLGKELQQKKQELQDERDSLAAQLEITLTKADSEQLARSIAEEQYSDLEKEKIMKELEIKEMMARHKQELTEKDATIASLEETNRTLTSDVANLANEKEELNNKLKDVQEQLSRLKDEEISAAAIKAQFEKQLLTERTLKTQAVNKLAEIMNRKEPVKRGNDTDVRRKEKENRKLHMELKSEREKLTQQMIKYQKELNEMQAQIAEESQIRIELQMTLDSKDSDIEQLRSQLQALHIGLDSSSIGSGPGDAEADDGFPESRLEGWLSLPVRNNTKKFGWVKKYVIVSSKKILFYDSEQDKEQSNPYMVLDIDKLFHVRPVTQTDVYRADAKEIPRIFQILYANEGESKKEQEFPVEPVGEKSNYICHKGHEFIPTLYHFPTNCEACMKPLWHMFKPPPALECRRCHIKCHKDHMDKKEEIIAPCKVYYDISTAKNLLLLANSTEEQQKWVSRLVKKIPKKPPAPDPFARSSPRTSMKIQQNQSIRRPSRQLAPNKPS
Sequence of EPHB2 (human) (P29323 whole entry, looked up): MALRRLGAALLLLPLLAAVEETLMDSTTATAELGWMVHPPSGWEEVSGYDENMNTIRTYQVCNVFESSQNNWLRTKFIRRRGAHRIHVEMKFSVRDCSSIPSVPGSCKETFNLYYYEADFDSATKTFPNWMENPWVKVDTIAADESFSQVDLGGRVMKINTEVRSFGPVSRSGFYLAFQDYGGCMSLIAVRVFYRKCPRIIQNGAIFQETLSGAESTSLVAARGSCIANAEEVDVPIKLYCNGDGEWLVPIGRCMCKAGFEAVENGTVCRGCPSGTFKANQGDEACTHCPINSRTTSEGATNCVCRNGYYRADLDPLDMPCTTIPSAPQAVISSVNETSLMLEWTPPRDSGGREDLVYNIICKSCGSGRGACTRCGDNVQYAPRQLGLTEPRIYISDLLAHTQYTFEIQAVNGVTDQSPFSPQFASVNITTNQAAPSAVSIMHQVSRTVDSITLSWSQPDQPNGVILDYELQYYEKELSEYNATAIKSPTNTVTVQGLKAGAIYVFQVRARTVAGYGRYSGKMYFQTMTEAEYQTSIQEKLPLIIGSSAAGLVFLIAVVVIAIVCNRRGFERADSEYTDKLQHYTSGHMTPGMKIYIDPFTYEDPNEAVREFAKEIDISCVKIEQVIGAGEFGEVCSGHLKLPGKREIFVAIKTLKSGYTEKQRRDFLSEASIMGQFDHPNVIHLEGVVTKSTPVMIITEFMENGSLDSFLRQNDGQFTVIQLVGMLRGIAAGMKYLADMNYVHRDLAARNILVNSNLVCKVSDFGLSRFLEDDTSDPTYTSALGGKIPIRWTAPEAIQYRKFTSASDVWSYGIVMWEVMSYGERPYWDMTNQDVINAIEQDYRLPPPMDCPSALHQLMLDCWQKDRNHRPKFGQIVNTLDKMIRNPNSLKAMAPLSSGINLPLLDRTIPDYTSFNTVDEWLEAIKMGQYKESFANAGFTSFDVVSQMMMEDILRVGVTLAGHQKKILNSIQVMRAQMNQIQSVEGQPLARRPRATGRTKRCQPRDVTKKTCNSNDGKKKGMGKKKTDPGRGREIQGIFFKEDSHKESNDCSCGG
Sequence of SGK2 (human) (Q9HBY8 whole entry, looked up): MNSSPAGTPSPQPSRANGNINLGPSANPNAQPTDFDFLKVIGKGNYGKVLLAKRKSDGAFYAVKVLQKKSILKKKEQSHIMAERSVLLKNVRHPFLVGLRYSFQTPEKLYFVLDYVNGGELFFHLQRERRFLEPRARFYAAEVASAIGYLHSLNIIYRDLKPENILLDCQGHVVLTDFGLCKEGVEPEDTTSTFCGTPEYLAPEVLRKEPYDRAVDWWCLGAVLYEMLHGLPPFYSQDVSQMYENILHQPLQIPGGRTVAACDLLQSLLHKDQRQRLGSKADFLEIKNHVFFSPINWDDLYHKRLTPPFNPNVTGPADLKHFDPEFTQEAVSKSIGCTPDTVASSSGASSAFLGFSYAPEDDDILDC

SMILES: CCn1cnc2c(Nc3cccc(Cl)c3)nc(N[C@@H]3CCCC[C@@H]3N)nc21
- residual activity (AKT1 (human)): 108%
- residual activity (FLT3 (human)): 12.7%
- residual activity (NEK3 (human)): 100%
- residual activity (MAP3K8 (human)): 93.6%
- residual activity (PRKD1 (human)): 90.8%
- residual activity (ADRBK2 (human)): 89.2%
- residual activity (CSNK1E (human)): 92.1%
- residual activity (MYLK2 (human)): 95.2%
- residual activity (PRKCB2 (human)): 79.4%
- residual activity (FER (human)): 86.8%
- residual activity (PNCK (human)): 98.5%
- residual activity (PRKCB1 (human)): 106%
- residual activity (INSRR (human)): 90.7%
- residual activity (TEC (human)): 123%
- residual activity (EPHA8 (human)): 93%
- residual activity (PRKCE (human)): 90.6%
- residual activity (NEK1 (human)): 95%
- residual activity (IKBKE (human)): 99.5%
- residual activity (GRK5 (human)): 106%
- residual activity (MUSK (human)): 79.8%
- residual activity (ROS1 (human)): 90.7%
- residual activity (MAPKAPK3 (human)): 91.3%
- residual activity (CSF1R (human)): 94.2%
- residual activity (SGK2 (human)): 98.2%
- residual activity (ULK1 (human)): 74.5%
- residual activity (CSNK1G2 (human)): 69.5%
- residual activity (DYRK3 (human)): 83.7%
- residual activity (PDGFRA (human)): 100%
- residual activity (KIT (human)): 101%
- residual activity (EPHA5 (human)): 73.9%
- residual activity (EPHB2 (human)): 82.9%
- residual activity (PAK6 (human)): 96.7%
- residual activity (MST4 (human)): 104%
- residual activity (PTK2 (human)): 83.1%
- residual activity (MAP3K2 (human)): 91.7%
- residual activity (STK25 (human)): 101%
- residual activity (MAP4K5 (human)): 91.1%
- residual activity (INSR (human)): 91.3%
- residual activity (CDK5 CDK5R1 p25 (human)): 5.16%
- residual activity (CDC42BPA (human)): 93.4%
- residual activity (ROCK2 (human)): 90.6%
- residual activity (PLK1 (human)): 86%

SMILES: O=C1Nc2ccccc2/C1=C1\Nc2ccccc2\C1=N/O
- residual activity (AKT1 (human)): 97.8%
- residual activity (FLT3 (human)): 2.16%
- residual activity (NEK3 (human)): 102%
- residual activity (MAP3K8 (human)): 106%
- residual activity (PRKD1 (human)): 85%
- residual activity (ADRBK2 (human)): 108%
- residual activity (CSNK1E (human)): 46.1%
- residual activity (MYLK2 (human)): 41.1%
- residual activity (PRKCB2 (human)): 101%
- residual activity (FER (human)): 67.8%
- residual activity (PNCK (human)): 106%
- residual activity (PRKCB1 (human)): 94.7%
- residual activity (INSRR (human)): 35.7%
- residual activity (TEC (human)): 105%
- residual activity (EPHA8 (human)): 91.1%
- residual activity (PRKCE (human)): 96.5%
- residual activity (NEK1 (human)): 96.9%
- residual activity (IKBKE (human)): 75.1%
- residual activity (GRK5 (human)): 103%
- residual activity (MUSK (human)): 71.2%
- residual activity (ROS1 (human)): 65.6%
- residual activity (MAPKAPK3 (human)): 103%
- residual activity (CSF1R (human)): 83.2%
- residual activity (SGK2 (human)): 91.8%
- residual activity (ULK1 (human)): 78.9%
- residual activity (CSNK1G2 (human)): 89.4%
- residual activity (DYRK3 (human)): 106%
- residual activity (PDGFRA (human)): 90.9%
- residual activity (KIT (human)): 73.2%
- residual activity (EPHA5 (human)): 86.5%
- residual activity (EPHB2 (human)): 83.3%
- residual activity (PAK6 (human)): 94.4%
- residual activity (MST4 (human)): 75.3%
- residual activity (PTK2 (human)): 65.8%
- residual activity (MAP3K2 (human)): 94.6%
- residual activity (STK25 (human)): 87.5%
- residual activity (MAP4K5 (human)): 37.8%
- residual activity (INSR (human)): 66.8%
- residual activity (CDK5 CDK5R1 p25 (human)): 28.7%
- residual activity (CDC42BPA (human)): 93.7%
- residual activity (ROCK2 (human)): 98.5%
- residual activity (PLK1 (human)): 100%

SMILES: O=C(Nc1cccc(Nc2cc(Nc3cccc(C(F)(F)F)c3)ncn2)c1)C1CC1
- residual activity (AKT1 (human)): 102%
- residual activity (FLT3 (human)): 97.9%
- residual activity (NEK3 (human)): 94.4%
- residual activity (MAP3K8 (human)): 98.4%
- residual activity (PRKD1 (human)): 100%
- residual activity (ADRBK2 (human)): 103%
- residual activity (CSNK1E (human)): 98.1%
- residual activity (MYLK2 (human)): 98.9%
- residual activity (PRKCB2 (human)): 107%
- residual activity (FER (human)): 102%
- residual activity (PNCK (human)): 101%
- residual activity (PRKCB1 (human)): 93.2%
- residual activity (INSRR (human)): 101%
- residual activity (TEC (human)): 115%
- residual activity (EPHA8 (human)): 103%
- residual activity (PRKCE (human)): 89.2%
- residual activity (NEK1 (human)): 109%
- residual activity (IKBKE (human)): 97.7%
- residual activity (GRK5 (human)): 109%
- residual activity (MUSK (human)): 113%
- residual activity (ROS1 (human)): 93.5%
- residual activity (MAPKAPK3 (human)): 104%
- residual activity (CSF1R (human)): 99.9%
- residual activity (SGK2 (human)): 99%
- residual activity (ULK1 (human)): 100%
- residual activity (CSNK1G2 (human)): 99.1%
- residual activity (DYRK3 (human)): 101%
- residual activity (PDGFRA (human)): 86.4%
- residual activity (KIT (human)): 99.9%
- residual activity (EPHA5 (human)): 106%
- residual activity (EPHB2 (human)): 88.6%
- residual activity (PAK6 (human)): 99.3%
- residual activity (MST4 (human)): 98.9%
- residual activity (PTK2 (human)): 105%
- residual activity (MAP3K2 (human)): 91.8%
- residual activity (STK25 (human)): 97.4%
- residual activity (MAP4K5 (human)): 96.1%
- residual activity (INSR (human)): 103%
- residual activity (CDK5 CDK5R1 p25 (human)): 99.5%
- residual activity (CDC42BPA (human)): 77.7%
- residual activity (ROCK2 (human)): 99.2%
- residual activity (PLK1 (human)): 98.6%

SMILES: COc1cc2ncc(-c3ccccc3)nc2cc1OC
- residual activity (AKT1 (human)): 99.2%
- residual activity (FLT3 (human)): 65.9%
- residual activity (NEK3 (human)): 90.5%
- residual activity (MAP3K8 (human)): 108%
- residual activity (PRKD1 (human)): 93.3%
- residual activity (ADRBK2 (human)): 94.3%
- residual activity (CSNK1E (human)): 79.3%
- residual activity (MYLK2 (human)): 100%
- residual activity (PRKCB2 (human)): 88.8%
- residual activity (FER (human)): 80%
- residual activity (PNCK (human)): 98.2%
- residual activity (PRKCB1 (human)): 105%
- residual activity (INSRR (human)): 99.2%
- residual activity (TEC (human)): 164%
- residual activity (EPHA8 (human)): 93.1%
- residual activity (PRKCE (human)): 87.9%
- residual activity (NEK1 (human)): 95.9%
- residual activity (IKBKE (human)): 98.9%
- residual activity (GRK5 (human)): 106%
- residual activity (MUSK (human)): 95.9%
- residual activity (ROS1 (human)): 100%
- residual activity (MAPKAPK3 (human)): 86.7%
- residual activity (CSF1R (human)): 88.2%
- residual activity (SGK2 (human)): 95.6%
- residual activity (ULK1 (human)): 84.5%
- residual activity (CSNK1G2 (human)): 84%
- residual activity (DYRK3 (human)): 95.4%
- residual activity (PDGFRA (human)): 83.1%
- residual activity (KIT (human)): 67.3%
- residual activity (EPHA5 (human)): 99.9%
- residual activity (PAK6 (human)): 82.8%
- residual activity (MST4 (human)): 109%
- residual activity (PTK2 (human)): 100%
- residual activity (MAP3K2 (human)): 92.5%
- residual activity (STK25 (human)): 90.7%
- residual activity (MAP4K5 (human)): 99.8%
- residual activity (INSR (human)): 89.1%
- residual activity (CDK5 CDK5R1 p25 (human)): 94.6%
- residual activity (CDC42BPA (human)): 85.4%
- residual activity (ROCK2 (human)): 96.1%
- residual activity (PLK1 (human)): 98.5%
